From patent US6133294A (priority 1999, dated 2000) come the findings set out here.

Holding throughout (assay type): in vivo
In one experiment the test system is Leptosphaeria nodorum. Nature of the experiment: Glume blotch of wheat (Leptosphaeria nodorum--LEPTNO). Conditions: wheat (cultivar Monon), 100 ppm spray to run off, inoculated after 24 hours; for pest or weed control at 100 ppm: Parastagonospora nodorum, 1DP, read-out: control of plant disease, LEPTNO 1DP. On the procedure: (§1) Compound Formulation: Compound formulation was accomplished by dissolving technical materials in acetone, with serial dilutions then made in acetone to obtain desired rates. Final treatment volumes were obtained by adding nine volumes 0.05% aqueous Tween-20 or Triton X-100, depending upon the pathogen.
Glume blotch of wheat (Leptosphaeria nodorum--LEPTNO): Wheat (cultivar Monon) was grown from seed in a soilless peat-based potting mixture (Metromix) until the seedlings were 1-2 leaf (BBCH 12). These plants were then sprayed to run off with the test compound at a rate of 100 ppm. After 24 hours the test plants were inoculated with an aqueous spore suspension of Leptosphaeria nodorum. The plants were then transferred to the greenhouse until disease developed on the untreated control plants.
(§2) the following table presents the activity of typical compounds of the present invention when evaluated in these experiments. The effectiveness of the test compounds in controlling disease was rated using the following scale: […]

A further experiment deals with Erysiphe graminis. Kind of experiment: Powdery Mildew of Wheat (Erysiphe graminis--ERYSGT). As to conditions: wheat (cultivar Monon), 100 ppm spray to run off, inoculated after 24 hours; for pest or weed control at 100 ppm: Blumeria graminis, 1DP, read-out: control of plant disease, ERYSGT 1DP. On the procedure: as §1
Powdery Mildew of Wheat (Erysiphe graminis--ERYSGT): Wheat (cultivar Monon) was grown in a soilless peat-based potting mixture (Metromix) until the seedlings were 1-2 leaf (BBCH 12). These plants were then sprayed to run off with the test compound at a rate of 100 ppm. After 24 hours the test plants were inoculated with Erysiphe graminis by dusting spores from stock plants onto the test plants. The plants were then transferred to the greenhouse until disease developed on the untreated control plants.
as §2

A further experiment concerns Puccinia recondita. Nature of the experiment: Brown rust (Puccinia recondita--PUCCRT). As to conditions: wheat (cultivar Monon), 100 ppm spray to run off, inoculated after 24 hours; for pest or weed control at 100 ppm: Puccinia recondita, 1DP, read-out: control of plant disease, PUCCRT 1DP. As for the experimental part: as §1
Brown rust (Puccinia recondita--PUCCRT): Wheat (cultivar Monon) was grown from seed in a soilless peat-based potting mixture (Metromix) until the seedlings were […]). These plants were then sprayed to run off with the test compound at a rate of 100 ppm. After 24 hours the test plants were inoculated with an aqueous spore suspension of Puccinia recondita. The plants were then transferred to the greenhouse until disease developed on the untreated control plants.
as §2

For the next experiment, the system named is Phytophthora infestans. Nature of the experiment: whole plant or invertebrate. Conditions: for control of plant disease, PHYTIN 1DP: tomatoes (cultivar Rutgers), 100 ppm spray to run off, inoculated after 24 hours; for pest or weed control at 100 ppm: Phytophthora infestans, 24 h, read-out: control of plant disease, PHYTIN 1DP.

As to `CNC(=O)C(=NOC)c1cccc(C)c1COc1ncc(-c2noc(C(F)(F)F)n2)cc1Cl` [Example 35], in the experiment on Leptosphaeria nodorum, the “control of plant disease, LEPTNO 1DP” value is on record as “++ (75-100% control of plant disease)”. In addition, the “control of plant disease, ERYSGT 1DP” value in the experiment with Erysiphe graminis is “++ (75-100% control of plant disease)”. In the experiment on Puccinia recondita, the “control of plant disease, PUCCRT 1DP” value was “++ (75-100% control of plant disease)”. Further, the “control of plant disease, PHYTIN 1DP” value with Phytophthora infestans is “- (0-24% control of plant disease)”.

As for `CCc1nc(-c2cnc(OCc3ccccc3C(=NOC)C(=O)NC)c(Cl)c2)no1` [Example 36], the pest or weed control at 100 ppm is 75 to 100% in the experiment with Leptosphaeria nodorum, 75 to 100% with Erysiphe graminis, 75 to 100% in the experiment with Puccinia recondita and 0 to 24% with Phytophthora infestans.

As for `CNC(=O)C(=NOC)c1ccccc1COc1ncc(-c2noc(C(C)C)n2)cc1Cl` [Example 37], the pest or weed control at 100 ppm in the experiment on Leptosphaeria nodorum lay in the range of 75 to 100%; in the experiment on Erysiphe graminis it was 75 to 100%; with Puccinia recondita it was 75 to 100%; in the experiment with Phytophthora infestans it was 0 to 24%.

Take `CNC(=O)C(=NOC)c1ccccc1COc1ncc(-c2cc(C(C)C)on2)cc1Cl` [Example 38]: the pest or weed control at 100 ppm in the experiment with Leptosphaeria nodorum was 75 to 100%; in the experiment on Erysiphe graminis, 75 to 100%; in the experiment with Puccinia recondita, 75 to 100%; in the experiment with Phytophthora infestans it was 0 to 24%.

As to `CCc1cc(-c2cnc(OCc3ccccc3C(=NOC)C(=O)NC)c(Cl)c2)no1` [Example 39], the pest or weed control at 100 ppm with Leptosphaeria nodorum lay in the range of 75 to 100%; in the experiment with Erysiphe graminis it was 75 to 100%; in the experiment on Puccinia recondita, 75 to 100%; in the experiment with Phytophthora infestans, 0 to 24%.

Take `CCOc1cc(-c2cnc(OCc3ccccc3C(=NOC)C(=O)NC)c(Cl)c2)no1` [Example 40]: the pest or weed control at 100 ppm lay in the range of 0 to 24% in the experiment on Leptosphaeria nodorum, 75 to 100% in the experiment with Erysiphe graminis, 75 to 100% in the experiment with Puccinia recondita and 25 to 74% in the experiment with Phytophthora infestans.

Consider `CNC(=O)C(=NOC)c1ccccc1COc1ncc(-c2cc(C(C)(C)C)on2)cc1Cl` [Example 41], for which the pest or weed control at 100 ppm in the experiment with Leptosphaeria nodorum lay within 75 to 100%; in the experiment with Erysiphe graminis, 75 to 100%; in the experiment with Puccinia recondita, 75 to 100%; in the experiment with Phytophthora infestans it was 0 to 24%.

In the case of `CNC(=O)C(=NOC)c1ccccc1COc1ccc(-c2cc(C(C)C)on2)cn1` [Example 42], the pest or weed control at 100 ppm is 0 to 24% with Leptosphaeria nodorum, 75 to 100% in the experiment with Erysiphe graminis, 75 to 100% in the experiment with Puccinia recondita and 75 to 100% in the experiment with Phytophthora infestans.

Regarding `CNC(=O)C(=NOC)c1ccccc1COc1ccc(-c2cc(C(C)(C)C)on2)cn1` [Example 43], the pest or weed control at 100 ppm with Leptosphaeria nodorum, in the experiment on Erysiphe graminis, with Puccinia recondita and in the experiment with Phytophthora infestans was 75 to 100% throughout.

For the compound `CNC(=O)C(=NOC)c1ccccc1COc1ncc(-c2nc(C(C)(C)C)no2)cc1Cl` [Example 47, Benzeneacetamide, 2-[[[3-chloro-5-(3-t-butyl-1,2,4-oxadiazol-5-yl)-2-pyridinyl]oxy]methyl]-α-(methoxyimino)-N-methyl-], the pest or weed control at 100 ppm in the experiment on Leptosphaeria nodorum lay within 75 to 100%; in the experiment with Erysiphe graminis it was 75 to 100%; with Puccinia recondita it was 75 to 100%; with Phytophthora infestans, 0 to 24%.

As to `CNC(=O)C(=NOC)c1ccccc1COc1ncc(-c2nc(-c3ccccc3)no2)cc1Cl` [Example 48], the pest or weed control at 100 ppm with Leptosphaeria nodorum is 25 to 74%; in the experiment with Erysiphe graminis, 75 to 100%; with Puccinia recondita it was 75 to 100%; with Phytophthora infestans it was 75 to 100%.

In the case of `CNC(=O)C(=NOC)c1ccccc1COc1ncc(-c2nc(C)no2)cc1Cl` [Example 49, Benzeneacetamide, 2-[[[3-chloro-5-(3-methyl-1,2,4-oxadiazol-5-yl)-2-pyridinyl]oxy]methyl]-α-(methoxyimino)-N-methyl-], the pest or weed control at 100 ppm in the experiment with Leptosphaeria nodorum is 75 to 100%; in the experiment on Erysiphe graminis, 75 to 100%; in the experiment on Puccinia recondita, 75 to 100%; with Phytophthora infestans, 0 to 24%.

As to `CCOC(=O)c1nc(-c2cnc(OCc3ccccc3C(=NOC)C(=O)NC)c(C)c2)oc1C` [Example 52, Benzeneacetamide, 2-[[[3-methyl-5-(4-ethoxycarbonyl-5-methyl-oxazol-2-yl)-2-pyridinyl]oxy]methyl]-α-(methoxyimino)-N-methyl-], the pest or weed control at 100 ppm in the experiment with Leptosphaeria nodorum was in the range of 25 to 74%; in the experiment with Erysiphe graminis, 25 to 74%; with Puccinia recondita, 75 to 100%; in the experiment on Phytophthora infestans it was 75 to 100%.

With `CNC(=O)C(=NOC)c1ccccc1COc1ncc(-c2nc(C3CC3)no2)cc1Cl` [Example 53], the pest or weed control at 100 ppm was in the range of 25 to 74% with Leptosphaeria nodorum, 75 to 100% with Erysiphe graminis, 75 to 100% in the experiment on Puccinia recondita and 75 to 100% in the experiment with Phytophthora infestans.

As for `CCc1noc(-c2cnc(OCc3ccccc3C(=NOC)C(=O)NC)c(Cl)c2)n1` [Example 54], the pest or weed control at 100 ppm in the experiment on Leptosphaeria nodorum, with Erysiphe graminis, with Puccinia recondita and in the experiment with Phytophthora infestans was 75 to 100% in each case.

`CNC(=O)C(=NOC)c1ccccc1COc1ncc(-c2nc(N(C)C)no2)cc1Cl` [Example 64]: the pest or weed control at 100 ppm in the experiment on Leptosphaeria nodorum was 75 to 100%; in the experiment on Erysiphe graminis it was 75 to 100%; in the experiment with Puccinia recondita, 75 to 100%; in the experiment on Phytophthora infestans, 0 to 24%.

In the case of `CNC(=O)C(=NOC)c1ccccc1COc1ccc(-c2nc(C(C)(C)C)no2)cn1` [Example 65], the pest or weed control at 100 ppm in the experiment with Leptosphaeria nodorum was 75 to 100%; in the experiment on Erysiphe graminis, 75 to 100%; in the experiment on Puccinia recondita, 75 to 100%; in the experiment with Phytophthora infestans, 0 to 24%.

As to `CNC(=O)C(=NOC)c1ccccc1COc1ncc(-c2nc(C(F)(F)F)no2)cc1Cl` [Example 68], the pest or weed control at 100 ppm fell in the range of 75 to 100% with Leptosphaeria nodorum, 75 to 100% in the experiment with Erysiphe graminis, 75 to 100% with Puccinia recondita and 0 to 24% in the experiment with Phytophthora infestans.

Turning to `CNC(=O)C(=NOC)c1ccccc1COc1ncc(-c2nc(N3CCCCC3)no2)cc1Cl` [Example 69], the “control of plant disease, LEPTNO 1DP” value with Leptosphaeria nodorum is reported as “++ (75-100% control of plant disease)”. Further, the “control of plant disease, ERYSGT 1DP” value with Erysiphe graminis is on record as “++ (75-100% control of plant disease)”. Also, the “control of plant disease, PUCCRT 1DP” value in the experiment on Puccinia recondita is on record as “++ (75-100% control of plant disease)”. In the experiment on Phytophthora infestans, the “control of plant disease, PHYTIN 1DP” value is given as “++ (75-100% control of plant disease)”.

For the compound `CNC(=O)C(=NOC)c1ccccc1COc1ccc(-c2nc(C(C)C)no2)cn1` [Example 70], the pest or weed control at 100 ppm lay within 75 to 100% in the experiment with Leptosphaeria nodorum, 75 to 100% in the experiment on Erysiphe graminis, 75 to 100% in the experiment on Puccinia recondita and 0 to 24% with Phytophthora infestans.

On to `CNC(=O)C(=NOC)c1ccccc1COc1ccc(-c2nc(C(F)(F)F)no2)cn1` [Example 71], for which the pest or weed control at 100 ppm with Leptosphaeria nodorum fell in the range of 0 to 24%; in the experiment with Erysiphe graminis, 75 to 100%; in the experiment with Puccinia recondita it was 75 to 100%; in the experiment on Phytophthora infestans it was 75 to 100%.

For the compound `CNC(=O)C(=NOC)c1ccccc1COc1ncc(-c2nc(C3CCCCC3)no2)cc1Cl` [Example 72], the pest or weed control at 100 ppm in the experiment with Leptosphaeria nodorum lay within 0 to 24%; in the experiment with Erysiphe graminis, 0 to 24%; with Puccinia recondita it was 75 to 100%; in the experiment on Phytophthora infestans it was 0 to 24%.
